{"source": "patent US7816310B2", "about": "“Increased moisturization efficacy using hydroxyalkylurea and ammonium lactate” (Akzo Nobel N.V., priority 2003, dated 2010)", "test_system": "volar forearm of panellists with dry skin", "assay": "Skin Moisturization (Hydration), Corneometer CM 825", "format": "in vivo", "details": "15% active, baseline 46.75", "method": "Skin Moisturization (Hydration). Aqueous solutions (along with formulated lotions) were applied to the volar forearm of panellists with dry skin. Solutions tested contained between 2.5 and 15% active levels of Hydroxyalkylurea and various moisturizing agents. The various individual moisturizing agents were also used in combination with Hydroxyalkylurea and the relative moisture contents in the skin were compared. Moisture levels were measured using a Corneometer® CM 825 (available from CK Industries) prior to and at various time intervals after application of forty microliters of each sample (Temperature ˜21° C., Relative Humidity ˜35%)."}
{"smiles": "NC(=O)NCCO", "note": "[HAU, N-2-hydroxyethylurea]", "values": [{"measurement": "Relative Skin Moisture Content", "setting": "5 min after application", "result": 56.56}, {"measurement": "Relative Skin Moisture Content", "setting": "30 min after application", "result": 60.00}, {"measurement": "Relative Skin Moisture Content", "setting": "1 hr after application", "result": 62.95}, {"measurement": "Relative Skin Moisture Content", "setting": "2 hr after application", "result": 62.00}]}
